Assay results published in US4426390A, “Novel β-lactam compounds, process for producing thereof, and use thereof as medicines” (Sanraku-Ocean Co., Ltd., priority 1980, dated 1984).
Values after ≈ are worked out from the molar mass of the structure shown. One block for each compound: values may come before it.

Legend:
Type in all cases: cell-based
Alcaligenes Faecolis A1 = assay: MIC by agar dilution method; conditions: Alcaligenes Faecolis A1; agar dilution, 37° C., 18 hours; read-out: MIC
Method: (§1) The MIC is measured by an agar dilution method based on the standard method of the Japanese Society of Chemotherapy (Japanese Society of Chemotherapy: The Revised Method of Determination of MIC Values, Chemotherapy 22, 1126-1128, […]). Specifically, the antibiotic is serially diluted with a 1/50 M phosphate buffer at a pH of 7.3 to prepare a twofold dilution series. One milliliter of each dilution and 9 ml of an agar medium (Heart Infusion Agar; a product of Difco Laboratories) are mixed and allowed to solidify in a Petri dish having a diameter of 9 cm. One loopful of the stock culture of the test microbe is inoculated in trypto-soy buillon (a product of Eiken Kagaku Co., Ltd.) and incubated at 37° C. for 18 hours. The resulting culture broth is diluted to a concentration of about 10^6 cells/ml with physiological saline and inoculated on the agar plate by means of a microplanter.

[1] = test system: Bacillus subtillis ATCC 6633; assay: MIC by agar dilution method; conditions: Bacillus, ATCC6633, 18 h
Method: as §1

[2] = test system: Citrobacter Freundii GN346; assay: MIC by agar dilution method; conditions: 37° C., 18 hours
Method: as §1

Comamonas terrigena B996 = assay: MIC by agar dilution method; conditions: 37° C., 18 hours
Method: as §1

E. coli RGN823 = assay: MIC by agar dilution method; conditions: Escherichia coli, 37° C., 18 hours
Method: as §1

Ent. cloacae 45 = assay: MIC by agar dilution method; conditions: Enterobacter cloacae, 37° C., 18 hours
Method: as §1

Ent. sp. E8 = assay: MIC by agar dilution method; conditions: Ent. sp. E8; agar dilution, 37° C., 18 hours; read-out: MIC
Method: as §1

[3] = test system: Enterobacter aerogenes E19; assay: MIC by agar dilution method; conditions: Klebsiella aerogenes, 37° C., 18 hours
Method: as §1

Escherichia coli K-12 = assay: MIC by agar dilution method; conditions: K12; Escherichia coli K-12; agar dilution, 37° C., 18 hours; read-out: MIC
Method: as §1

[4] = test system: Klebsiella pneumoniae K13; assay: MIC by agar dilution method; conditions: 37° C., 18 hours
Method: as §1

P. rettgeri P7 = assay: MIC by agar dilution method; conditions: Providencia rettgeri; P. rettgeri P7; agar dilution, 37° C., 18 hours; read-out: MIC
Method: as §1

P. vulgaris GN76 = assay: MIC by agar dilution method; conditions: Proteus vulgaris, 37° C., 18 hours
Method: as §1

Proteus mirabilis P6 = assay: MIC by agar dilution method; conditions: Proteus mirabilis P6; agar dilution, 37° C., 18 hours; read-out: MIC
Method: as §1

Providencia sp. P8 = assay: MIC by agar dilution method; conditions: Providencia sp. P8; agar dilution, 37° C., 18 hours; read-out: MIC
Method: as §1

Ps. aeruginosa NCTC10490 = assay: MIC by agar dilution method; conditions: Pseudomonas aeruginosa, 37° C., 18 hours
Method: as §1

[5] = test system: Pseudomonas aenginosa IFO3445; assay: MIC by agar dilution method; conditions: 37° C., 18 hours
Method: as §1

S. aureus Russell = assay: MIC by agar dilution method; conditions: Staphylococcus aureus; S. aureus Russell; agar dilution, 37° C., 18 hours; read-out: MIC
Method: as §1

S. aureus Smith = assay: MIC by agar dilution method; conditions: Staphylococcus aureus, 37° C., 18 hours
Method: as §1

S. epidermidis = assay: MIC by agar dilution method; conditions: Staphylococcus epidermidis, 37° C., 18 hours
Method: as §1

Sarcina lutea S19 = assay: MIC by agar dilution method; conditions: Micrococcus luteus, 37° C., 18 hours
Method: as §1

Ser. marcesceus T55 = assay: MIC by agar dilution method; conditions: 37° C., 18 hours
Method: as §1

Serratia marcesceus S18 = assay: MIC by agar dilution method; conditions: 37° C., 18 hours
Method: as §1

[6] = test system: Staphylococcus aureus 209P; assay: MIC by agar dilution method; conditions: 37° C., 18 hours
Method: as §1

[7] = test system: Citrobacter Freundii GN346; assay: Disc assay of synergy, inhibition zones; conditions: disc OA-6129B2, PS-5 100 μg/ml, CER, PCG 1000 μg/ml
Method: (§2) (B) The presence or absence of synergy is visually checked by the size difference in inhibitory zones observed when the test drug is disc-assayedon an agar plate of a detector microbe and on an agar plate of the detector containing cephaloridine or benzylpenicillin, respectively.
(§3) One loopful of the stock culture of a test organism is inoculated in heat infusion broth (5 ml/tube), and grown at 37° C. for 18 hours. The culture broth is diluted to a final concentration of about 10^5 cells/ml in nutrient agar with or without benzyl penicillin or cephaloridine, and plated in a Petri dish with a diameter of 9 cm, as shown below.
(§4) Using the above-prepared agar plates, antibiotic PS-5 (100 μg/ml), antibiotic OA-6129B2 (5,6-trans OA-6129B) (100 μg/ml), benzylpenicillin (1000 μg/ml) and cephaloridine (1000 μg/ml) are subjected to disc assay.

Enterobacter cloacac 45 = assay: Disc assay of synergy, inhibition zones; conditions: disc OA-6129B2, PS-5 100 μg/ml, CER, PCG 1000 μg/ml
Method: as §2, §3, §4

Proteus vulgaris GN76 [8] = assay: Disc assay of synergy, inhibition zones; conditions: disc OA-6129B2, PS-5 100 μg/ml, CER, PCG 1000 μg/ml
Method: as §2, §3, §4

Serratia marccscens T55 = assay: Disc assay of synergy, inhibition zones; conditions: disc OA-6129B2, PS-5 100 μg/ml, CER, PCG 1000 μg/ml
Method: as §2, §3, §4

[9] = test system: Citrobacter Freundii GN346; assay: Synergistic effect on MIC, microdilution transfer plate technique
Proteus vulgaris GN76 [10] = assay: as above

SMILES: CC(O)[C@H]1C(=O)N2C(C(=O)O)=C(SCCNC(=O)CCNC(=O)C(O)C(C)(C)CO)C[C@H]12 (relative stereo) [OA-6129B2]
- MIC (Alcaligenes Faecolis A1): 6.25 µg/mL (≈ 13.2 µM)
- MIC [1]: 1.56 µg/mL (≈ 3.29 µM)
- MIC [2]: 25 µg/mL (≈ 52.8 µM)
- MIC (Comamonas terrigena B996): 0.39 µg/mL (≈ 0.824 µM)
- MIC (E. coli RGN823): 12.5 µg/mL (≈ 26.4 µM)
- MIC (Ent. cloacae 45): 50 µg/mL (≈ 106 µM)
- MIC (Ent. sp. E8): 25 µg/mL (≈ 52.8 µM)
- MIC [3]: 25 µg/mL (≈ 52.8 µM)
- MIC (Escherichia coli K-12): 12.5 µg/mL (≈ 26.4 µM)
- MIC [4]: 12.5 µg/mL (≈ 26.4 µM)
- MIC (P. rettgeri P7): 25 µg/mL (≈ 52.8 µM)
- MIC (P. vulgaris GN76): 50 µg/mL (≈ 106 µM)
- MIC (Proteus mirabilis P6): 50 µg/mL (≈ 106 µM)
- MIC (Providencia sp. P8): 6.25 µg/mL (≈ 13.2 µM)
- MIC (Ps. aeruginosa NCTC10490): > 100 µg/mL
- MIC [5]: > 100 µg/mL
- MIC (S. aureus Russell): 12.5 µg/mL (≈ 26.4 µM)
- MIC (S. aureus Smith): 12.5 µg/mL (≈ 26.4 µM)
- MIC (S. epidermidis): 12.5 µg/mL (≈ 26.4 µM)
- MIC (Sarcina lutea S19): 6.25 µg/mL (≈ 13.2 µM)
- MIC (Ser. marcesceus T55): 50 µg/mL (≈ 106 µM)
- MIC (Serratia marcesceus S18): 25 µg/mL (≈ 52.8 µM)
- MIC [6]: 6.25 µg/mL (≈ 13.2 µM)
- zone of inhibition at 100 µg/mL ([7]; Citrobacter freundii, GN346, plate: None, read-out: diameter of inhibition zones): 12 mm
- diameter of inhibition zones ([7]; plate: + CER): 16.0 mm
- diameter of inhibition zones ([7]; plate: + PCG): 13.0 mm
- zone of inhibition at 100 µg/mL (Enterobacter cloacac 45; Enterobacter, 45, plate: None, read-out: diameter of inhibition zones): 10 mm
- diameter of inhibition zones (Enterobacter cloacac 45; plate: + CER): 15.0 mm
- diameter of inhibition zones (Enterobacter cloacac 45; plate: + PCG): 12.0 mm
- zone of inhibition at 100 µg/mL (Proteus vulgaris GN76 [8]; Proteus vulgaris, GN76, plate: None, read-out: diameter of inhibition zones): 0 mm
- diameter of inhibition zones (Proteus vulgaris GN76 [8]; plate: + CER): 20.0 mm
- diameter of inhibition zones (Proteus vulgaris GN76 [8]; plate: + PCG): 19.5 mm
- zone of inhibition at 100 µg/mL (Serratia marccscens T55; Serratia, T55, plate: None, read-out: diameter of inhibition zones): 12 mm
- diameter of inhibition zones (Serratia marccscens T55; plate: + CER): 22.0 mm
- diameter of inhibition zones (Serratia marccscens T55; plate: + PCG, reduced to 5 μg/ml (final concentration)): 12.0 mm

- MIC of ABPC in combination ([9]; with OA-6129A 6.25 μg/ml): 313 µg/mL
- MIC of ABPC in combination ([9]; with OA-6129A 25 μg/ml): < 5 µg/mL
- MIC of ABPC in combination ([9]; with OA-6129A 50 μg/ml): < 5 µg/mL
- MIC of ABPC in combination ([9]; with OA-6129A […]): 625 µg/mL
- MIC of ABPC in combination (Proteus vulgaris GN76 [10]; with OA-6129A 1.56 μg/ml): 3.3 µg/mL
- MIC of ABPC in combination (Proteus vulgaris GN76 [10]; with OA-6129A 6.25 μg/ml): 39 µg/mL
- MIC of ABPC in combination (Proteus vulgaris GN76 [10]; with OA-6129A 25 μg/ml): 10 µg/mL
- MIC of ABPC in combination (Proteus vulgaris GN76 [10]; with OA-6129A 50 μg/ml): < 5 µg/mL
- MIC of ABPC in combination (Proteus vulgaris GN76 [10]; with OA-6129A […]): 156 µg/mL
SMILES: CC1(C)S[C@@H]2[C@H](NC(=O)[C@H](N)c3ccccc3)C(=O)N2[C@H]1C(=O)O [ABPC, Aminobenzylpenicillin]
